Assay results: ChEMBL document CHEMBL1201862, “PubChem BioAssay data set” (2004)
Active and inactive are the calls of the source.

Assays:
[1] = HEK293T cell cytotoxicity, dose response, cytotoxicity control, luminescence plate reader, powder samples, set 4 (AID 651863); assay type: functional, cell-based; conditions: HEK293
[2] = target: T1, Methionyl-tRNA synthetase, putative (Trypanosoma brucei brucei, UniProt Q38C91); assay type: functional, Trypanosoma brucei brucei strain 927/4 GUTat10.1
T1 sequence (Q38C91 whole entry): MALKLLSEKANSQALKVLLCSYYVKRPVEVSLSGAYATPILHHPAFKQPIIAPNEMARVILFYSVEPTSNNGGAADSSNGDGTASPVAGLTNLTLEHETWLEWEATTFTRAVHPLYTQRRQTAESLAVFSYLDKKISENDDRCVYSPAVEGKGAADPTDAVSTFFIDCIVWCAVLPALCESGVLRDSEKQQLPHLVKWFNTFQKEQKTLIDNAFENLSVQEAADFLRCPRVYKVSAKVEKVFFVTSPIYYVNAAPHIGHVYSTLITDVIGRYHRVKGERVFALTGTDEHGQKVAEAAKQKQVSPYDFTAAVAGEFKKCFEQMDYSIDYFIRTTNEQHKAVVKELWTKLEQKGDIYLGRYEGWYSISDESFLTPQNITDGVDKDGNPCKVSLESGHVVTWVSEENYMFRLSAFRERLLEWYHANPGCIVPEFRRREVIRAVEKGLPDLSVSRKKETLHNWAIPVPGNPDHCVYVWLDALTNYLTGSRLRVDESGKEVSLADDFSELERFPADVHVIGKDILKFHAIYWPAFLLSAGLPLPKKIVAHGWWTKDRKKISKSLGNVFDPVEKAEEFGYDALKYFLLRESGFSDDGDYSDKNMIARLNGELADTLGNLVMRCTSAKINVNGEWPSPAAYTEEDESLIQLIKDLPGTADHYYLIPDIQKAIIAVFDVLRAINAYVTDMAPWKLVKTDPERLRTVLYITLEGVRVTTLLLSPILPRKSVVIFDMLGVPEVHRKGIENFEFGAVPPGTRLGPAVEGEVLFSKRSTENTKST

[3] = Counterscreen for inhibitors of Trypanosoma brucei methionyl tRNA synthetase (MetRS): Luminescence-based cell-based high throughput dose response assay to identify compounds that are cytotoxic to Jurkat human T lymphocyte cells.; assay type: functional
[4] = target: T1, Methionyl-tRNA synthetase, putative; assay type: functional, Trypanosoma brucei brucei strain 927/4 GUTat10.1; remark: listed apart in the source
[5] = Late stage counterscreen for inhibitors of Trypanosoma brucei methionyl tRNA synthetase (MetRS): Luminescence-based cell-based high throughput dose response assay to identify compounds that are cytotoxic to Jurkat human T lymphocyte cells.; assay type: functional
[6] = tested on: CHO; test: cytotoxicity in TLR9-MyD88 CHO cells, dose response, cytotoxicity control for TLR9-MyD88 binding inhibitor project, cell-based, luminescence (AID 588339); assay type: functional, hamster; conditions: Cricetulus griseus;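 note: CHO cells stably coexpressing TLR9 and MyD88 fusions from primary screen; compound exposure lasted 48 hours before viability readout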
[7] = target: Beta Lactamase (Pseudomonas aeruginosa, UniProt Q932Y6); test: beta-lactamase reporter inhibitor potency, dose response, artefact control for TLR9-MyD88 binding inhibitor project, BLA reporter cells, FRET fluorescence (AID 588341); assay type: cell-based;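 note: cell based assay in CHO-K1 cells stably expressing beta-lactamase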
[8] = HeLa cell cytotoxicity, dose response, cytotoxicity control for MgcRacGAP inhibitor project (AID 624300); assay type: functional
[9] = target: T2, Rac GTPase-activating protein 1 (Homo sapiens, UniProt Q9H0H5); test: MgcRacGAP GTPase-activating activity inhibitors, confirmation, biochemical, ADP Hunter fluorescence, primary and confirmatory (AID 624330); assay type: functional
T2 sequence (Q9H0H5 whole entry): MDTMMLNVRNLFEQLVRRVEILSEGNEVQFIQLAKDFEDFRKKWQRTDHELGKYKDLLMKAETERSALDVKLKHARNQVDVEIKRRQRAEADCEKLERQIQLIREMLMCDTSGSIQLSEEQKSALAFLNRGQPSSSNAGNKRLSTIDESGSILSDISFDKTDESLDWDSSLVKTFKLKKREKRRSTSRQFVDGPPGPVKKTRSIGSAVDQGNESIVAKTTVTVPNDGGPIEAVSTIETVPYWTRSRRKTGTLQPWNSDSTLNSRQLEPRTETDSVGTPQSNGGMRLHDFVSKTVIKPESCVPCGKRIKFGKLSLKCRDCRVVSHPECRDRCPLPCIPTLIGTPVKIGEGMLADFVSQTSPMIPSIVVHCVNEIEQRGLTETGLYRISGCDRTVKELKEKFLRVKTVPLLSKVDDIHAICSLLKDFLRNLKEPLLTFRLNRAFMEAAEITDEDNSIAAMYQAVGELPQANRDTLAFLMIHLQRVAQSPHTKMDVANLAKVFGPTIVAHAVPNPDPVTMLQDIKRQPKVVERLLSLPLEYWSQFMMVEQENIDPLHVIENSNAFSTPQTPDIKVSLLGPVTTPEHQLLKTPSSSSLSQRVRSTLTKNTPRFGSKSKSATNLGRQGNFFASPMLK

[10] = inhibitors of PGC1a acetylation in cells, dose response, cell-based, cherry-picked samples (AID 720514); assay type: functional;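 note: potency may reflect raised or lowered acetylation signal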
[11] = Late stage assay provider counterscreen for TLR9 inhibitors: absorbance-based cell-based MTT cytotoxicity assay.; assay type: functional
[12] = target: Metabotropic glutamate receptor 5 (Rattus norvegicus, UniProt P31424); test: Identification of a glycine sulfonamide based non-MPEP site positive allosteric potentiator (PAM) of mGlu5 (calcium_assay).; assay type: functional
[13] = target: E3 ubiquitin-protein ligase UHRF1 (Homo sapiens, UniProt Q96T88); test: Counterscreen for inhibitors of 5-meCpG-binding domain protein 2 (MBD2): TRFRET-based biochemical high throughput dose response assay to identify inhibitors of binding of ubiquitin-like with PHD and ring finger domains 1 (UHRF1) to methylated oligonucleotide.
[14] = target: T3, Calpain-2 catalytic subunit (Sus scrofa, UniProt P43367); test: pig calpain II inhibitor potency, dose response, biochemical, fluorogenic peptide substrate (AID 1420); assay type: functional
T3 sequence (P43367 whole entry): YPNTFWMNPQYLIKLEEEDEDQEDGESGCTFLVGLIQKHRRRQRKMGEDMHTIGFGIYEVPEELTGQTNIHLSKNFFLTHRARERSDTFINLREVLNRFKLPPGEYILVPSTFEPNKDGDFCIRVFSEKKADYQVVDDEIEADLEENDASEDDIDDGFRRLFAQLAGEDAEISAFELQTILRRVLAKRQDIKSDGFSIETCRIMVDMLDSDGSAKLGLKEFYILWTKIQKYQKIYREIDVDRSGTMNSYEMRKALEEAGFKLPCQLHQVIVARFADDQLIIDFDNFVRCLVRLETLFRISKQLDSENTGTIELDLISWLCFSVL

[15] = target: Disintegrin and metalloproteinase domain-containing protein 17 (Homo sapiens, UniProt P78536); test: exosite inhibitors of ADAM17, dose response, biochemical (AID 743260)
[16] = ADAM10 protease inhibitors, dose response, selectivity assay for ADAM17 exosite inhibitor project, biochemical, FRET peptide substrate, recombinant human ADAM10 (AID 743259);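 note: ADAM10 enzyme cleaving a FRET peptide substrate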
[17] = A549 lung cell cytotoxicity, dose response, cytotoxicity control, CellTiter-Glo luminescence, dry powder samples (AID 720585); assay type: functional
[18] = inhibitors of non-replicating M. tuberculosis, dose response, luciferase, dry powder (AID 651619); assay type: functional; conditions: Mycobacterium tuberculosis
[19] = HEK293T cell cytotoxicity, dose response, cytotoxicity control, CellTiter-Glo luminescence, dry powder, set 6 (AID 651949); assay type: functional, cell-based; conditions: HEK293
[20] = inhibitors of non-replicating M. tuberculosis, dose response, luciferase, dry powder (AID 651620); assay type: functional; conditions: Mycobacterium tuberculosis
[21] = growth inhibition of replicating M. tuberculosis, dose response, counter-screen, dry powder, IC90 (AID 651617); assay type: functional; conditions: Mycobacterium tuberculosis
[22] = target: Paired box protein Pax-8 (Homo sapiens, UniProt Q06710); test: inhibitors of PAX8-driven TPO luciferase reporter, dose response, RMG-I cells, cherry-pick (AID 687027); assay type: functional, cell-based;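 note: luciferase reporter driven by Pax8 target thyroperoxidase promoter measured by SteadyGlo luminescence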
[23] = cytotoxicity in COV362 ovarian cancer cells, dose response, cytotoxicity control for PAX8 inhibitor project, cell-based, plate reader, dry powder, SA12 (AID 743144); assay type: functional
[24] = IOSE-T80 ovarian epithelial cell cytotoxicity, dose response, cytotoxicity control for PAX8 inhibitor project, plate reader, dry powder samples (AID 743045); assay type: functional, cell-based
[25] = NIH:OVCAR-3 ovarian cancer cell cytotoxicity, dose response, PAX8 inhibitor project, plate reader, dry powder samples (AID 743044); assay type: functional, cell-based
[26] = PAX5 activity inhibitors, dose response, selectivity assay for PAX8 inhibitor project, cell-based, plate reader, dry powder samples (AID 743047); assay type: functional;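 note: HEK293 cells carrying a Pax5 driven CD19 promoter luciferase reporter; potency of inhibitors that lower reporter luminescence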
[27] = IGROV1 ovarian cancer cell cytotoxicity, dose response, PAX8 inhibitor project, plate reader, dry powder samples (AID 743043); assay type: functional, cell-based; conditions: IGROV-1
[28] = cytotoxicity in OVCAR4 cells, dose response, cytotoxicity control for PAX8 inhibitor project, cell-based, plate reader, dry powder, SA11 (AID 743150); assay type: functional; conditions: OVCAR-4
[29] = cytotoxicity in COV434 cells, dose response, cytotoxicity control for PAX8 inhibitor project, cell-based, plate reader, dry powder, SA7 (AID 743145); assay type: functional
[30] = cytotoxicity in OV-90 ovarian cancer cells, dose response, PAX8 inhibitor project, cell-based, plate reader, dry powder, SA8 (AID 743149); assay type: functional
[31] = cytotoxicity dependent on PAX8, dose response, cell-based, plate reader, dry powder (AID 743049); assay type: functional

Sequence of Paired box protein Pax-8 (Q06710 whole entry): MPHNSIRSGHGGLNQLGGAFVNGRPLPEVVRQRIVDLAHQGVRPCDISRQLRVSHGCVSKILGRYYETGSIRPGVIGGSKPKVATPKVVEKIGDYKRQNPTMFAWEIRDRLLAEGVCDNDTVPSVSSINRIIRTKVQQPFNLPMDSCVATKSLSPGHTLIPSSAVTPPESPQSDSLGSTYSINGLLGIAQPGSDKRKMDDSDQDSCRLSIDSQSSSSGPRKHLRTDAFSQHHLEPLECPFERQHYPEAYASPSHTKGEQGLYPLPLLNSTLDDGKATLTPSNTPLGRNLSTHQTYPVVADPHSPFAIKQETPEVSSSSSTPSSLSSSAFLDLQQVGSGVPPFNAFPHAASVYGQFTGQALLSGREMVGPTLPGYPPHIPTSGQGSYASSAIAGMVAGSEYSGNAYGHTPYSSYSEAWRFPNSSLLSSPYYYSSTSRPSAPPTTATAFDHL
Sequence of Metabotropic glutamate receptor 5 (P31424 whole entry, the tested form may be a part): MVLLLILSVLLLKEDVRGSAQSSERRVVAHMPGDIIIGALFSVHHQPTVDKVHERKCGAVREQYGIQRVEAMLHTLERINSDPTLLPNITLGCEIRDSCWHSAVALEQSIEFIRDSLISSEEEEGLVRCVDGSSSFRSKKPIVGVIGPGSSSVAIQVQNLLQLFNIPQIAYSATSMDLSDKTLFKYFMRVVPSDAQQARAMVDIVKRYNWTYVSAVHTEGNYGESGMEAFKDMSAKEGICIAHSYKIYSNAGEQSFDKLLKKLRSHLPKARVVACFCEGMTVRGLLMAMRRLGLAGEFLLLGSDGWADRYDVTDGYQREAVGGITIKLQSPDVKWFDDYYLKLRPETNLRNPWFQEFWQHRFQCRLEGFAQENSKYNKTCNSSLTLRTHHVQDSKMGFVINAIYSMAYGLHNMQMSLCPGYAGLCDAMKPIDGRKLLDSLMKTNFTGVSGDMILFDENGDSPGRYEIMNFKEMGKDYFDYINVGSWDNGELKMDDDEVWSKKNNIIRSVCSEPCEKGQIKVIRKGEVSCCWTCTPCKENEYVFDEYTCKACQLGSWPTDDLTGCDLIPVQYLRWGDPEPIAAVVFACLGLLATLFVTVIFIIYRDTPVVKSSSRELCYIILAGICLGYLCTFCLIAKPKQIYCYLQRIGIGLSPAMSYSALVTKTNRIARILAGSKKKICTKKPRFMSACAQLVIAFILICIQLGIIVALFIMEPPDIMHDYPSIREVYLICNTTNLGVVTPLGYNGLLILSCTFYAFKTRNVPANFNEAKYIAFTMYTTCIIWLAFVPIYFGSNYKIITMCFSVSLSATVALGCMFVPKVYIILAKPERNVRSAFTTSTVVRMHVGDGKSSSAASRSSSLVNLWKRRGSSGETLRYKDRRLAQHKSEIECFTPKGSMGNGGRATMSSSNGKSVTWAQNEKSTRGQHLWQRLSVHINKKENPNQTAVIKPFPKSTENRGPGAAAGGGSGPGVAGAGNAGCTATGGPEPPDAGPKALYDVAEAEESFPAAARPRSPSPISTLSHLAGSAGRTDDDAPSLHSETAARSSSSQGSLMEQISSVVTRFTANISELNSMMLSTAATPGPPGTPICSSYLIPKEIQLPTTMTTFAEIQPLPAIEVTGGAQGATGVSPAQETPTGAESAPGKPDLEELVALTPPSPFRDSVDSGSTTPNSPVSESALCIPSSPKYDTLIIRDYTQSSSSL
Sequence of Beta Lactamase (Q932Y6 whole entry): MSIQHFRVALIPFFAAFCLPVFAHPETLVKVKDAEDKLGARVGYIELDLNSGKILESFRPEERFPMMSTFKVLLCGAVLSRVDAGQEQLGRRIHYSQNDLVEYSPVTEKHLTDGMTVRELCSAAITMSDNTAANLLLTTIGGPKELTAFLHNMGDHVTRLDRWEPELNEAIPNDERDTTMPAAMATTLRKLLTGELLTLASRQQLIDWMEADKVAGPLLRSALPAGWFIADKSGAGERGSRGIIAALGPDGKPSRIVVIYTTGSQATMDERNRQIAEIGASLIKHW
Sequence of Disintegrin and metalloproteinase domain-containing protein 17 (P78536 whole entry, the tested form may be a part): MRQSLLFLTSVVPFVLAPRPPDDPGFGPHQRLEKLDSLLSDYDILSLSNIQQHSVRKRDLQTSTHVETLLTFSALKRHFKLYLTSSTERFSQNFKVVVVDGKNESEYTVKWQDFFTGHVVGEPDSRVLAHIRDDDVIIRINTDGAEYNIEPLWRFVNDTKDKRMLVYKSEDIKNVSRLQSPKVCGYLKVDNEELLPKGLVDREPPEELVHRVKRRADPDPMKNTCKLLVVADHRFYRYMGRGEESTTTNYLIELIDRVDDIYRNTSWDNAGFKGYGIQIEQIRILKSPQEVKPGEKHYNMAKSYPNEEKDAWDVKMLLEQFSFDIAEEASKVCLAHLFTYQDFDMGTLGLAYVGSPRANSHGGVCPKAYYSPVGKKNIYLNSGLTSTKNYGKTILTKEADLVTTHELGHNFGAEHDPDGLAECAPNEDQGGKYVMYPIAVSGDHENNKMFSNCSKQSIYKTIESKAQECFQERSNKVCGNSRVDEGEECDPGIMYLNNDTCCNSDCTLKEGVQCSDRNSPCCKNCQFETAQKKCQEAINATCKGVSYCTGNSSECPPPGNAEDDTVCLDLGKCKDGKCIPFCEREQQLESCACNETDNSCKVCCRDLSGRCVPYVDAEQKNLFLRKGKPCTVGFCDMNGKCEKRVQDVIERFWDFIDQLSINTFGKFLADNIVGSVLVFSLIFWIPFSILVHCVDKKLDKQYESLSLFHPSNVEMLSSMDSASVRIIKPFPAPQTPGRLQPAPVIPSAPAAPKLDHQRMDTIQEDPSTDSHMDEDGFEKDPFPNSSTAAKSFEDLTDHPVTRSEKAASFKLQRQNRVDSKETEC
Sequence of E3 ubiquitin-protein ligase UHRF1 (Q96T88 whole entry, the tested form may be a part): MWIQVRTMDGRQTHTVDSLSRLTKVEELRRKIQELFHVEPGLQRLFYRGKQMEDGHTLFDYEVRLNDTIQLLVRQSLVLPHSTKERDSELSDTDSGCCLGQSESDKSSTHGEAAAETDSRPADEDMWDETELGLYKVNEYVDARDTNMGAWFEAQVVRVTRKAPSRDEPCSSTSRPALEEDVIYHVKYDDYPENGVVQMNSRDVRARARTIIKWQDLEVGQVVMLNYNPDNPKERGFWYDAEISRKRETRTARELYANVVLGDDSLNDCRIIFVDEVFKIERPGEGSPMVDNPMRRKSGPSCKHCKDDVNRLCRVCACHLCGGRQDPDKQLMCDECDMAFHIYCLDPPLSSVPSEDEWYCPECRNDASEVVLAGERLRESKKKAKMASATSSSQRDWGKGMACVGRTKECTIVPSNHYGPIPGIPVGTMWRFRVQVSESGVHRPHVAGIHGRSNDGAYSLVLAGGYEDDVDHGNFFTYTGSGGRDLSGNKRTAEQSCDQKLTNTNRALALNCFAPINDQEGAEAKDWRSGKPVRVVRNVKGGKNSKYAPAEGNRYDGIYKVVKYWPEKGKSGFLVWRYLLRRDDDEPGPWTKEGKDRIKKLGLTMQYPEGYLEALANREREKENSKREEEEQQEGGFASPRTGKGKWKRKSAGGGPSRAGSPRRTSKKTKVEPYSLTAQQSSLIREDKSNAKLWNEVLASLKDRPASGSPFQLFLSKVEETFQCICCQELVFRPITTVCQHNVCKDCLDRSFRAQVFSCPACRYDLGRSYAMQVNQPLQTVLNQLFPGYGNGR

O=C(NC[C@@H]1c2ccccc2CCN1C(=O)[C@@H]1CCCC[C@@H]1C(=O)O)OCC1c2ccccc2-c2ccccc21
AC50 [1]: 46.3 µM (active)

CC(C)OCCCN1CC(=O)N2C(c3cccc([N+](=O)[O-])c3)c3[nH]c4ccccc4c3C[C@H]2C1=O (stereo partly specified)
IC50 [2]: 2.17 µM (active) | IC50 [3]: 73.1 µM (inactive) | IC50 [4]: 0.979 µM (active) | IC50 [5]: > 83.3 µM (inactive)

O=C1C=CC2(C=C1)O[C@H](Cc1ccccc1)[C@@H](Cc1ccccc1)O2
IC50 [6]: 0.57 µM (active) | IC50 [7]: 21.8 µM (inactive) | CC50 [8]: 46.5 µM (active) | IC50 [9]: 49.6 µM (active) | AC50 [10]: 1.05 µM (active) | CC50 [11]: 0.88 µM (active)

CS(=O)(=O)N(CC(=O)Nc1ccc(F)cc1F)c1cc(C(F)(F)F)ccc1Cl
EC50 [12]: 2.41 µM

OCCCNCc1cccc2ccccc12
IC50 [13]: > 43.9 µM (inactive)

Nc1cc(S(=O)(=O)N2CCCCC2)ccc1Oc1ccc(Cl)cc1
IC50 [14]: 5.69 µM (not active) | IC50 [15]: > 69.5 µM (inactive) | IC50 [16]: > 69.5 µM (inactive)

Cc1ccc(/C=C(\CCCC(=O)O)c2nc3ccccc3s2)cc1[N+](=O)[O-]
AbsAC50_uM [17]: 140.77 µM

c1ccc(-n2cc(CSc3nnc(C4CCC4)o3)nn2)cc1
IC90 [18]: 2 µM (active) | AC50 [19]: > 52 µM (inactive) | IC90 [20]: 2 µM (active) | IC90 [21]: 62 µM (active)

NS(=O)(=O)c1ccc(CCN2C(=O)/C(=C\c3ccc(Cl)cc3)SC2=S)cc1
AC50 [22]: 3.81 µM (active) | AC50 [23]: 24.9 µM (active) | AC50 [24]: 79.8 µM (active) | AC50 [25]: 22.3 µM (active) | AC50 [26]: 67.7 µM (active) | AC50 [27]: 30.4 µM (active) | AC50 [28]: 48.2 µM (active) | AC50 [29]: 29.8 µM (active) | AC50 [30]: 26.2 µM (active) | AC50 [31]: 15.5 µM (active)
